Laboratory results taken from PubChem BioAssay (NCI).
“And” between values parts separate entries of the source, which are not always exact repeats. Equal entries are not always repeated.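 These data come from cells grown in 96-well plates and exposed to compound for 48 hours at five concentrations. GI50 = concentration required for 50% inhibition of growth. TGI is the concentration that stops growth completely.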

Columns and labels:
Assay in all cases: inhibition of tumour cell growth, NCI panel, 48 h
IGROV1 ovarian = tested on: IGROV1 ovarian
NCI-H226 lung = tested on: NCI-H226 lung
EKVX NSCLC = tested on: EKVX NSCLC
UACC-62 melanoma = tested on: UACC-62 melanoma
MDA-MB-231 breast = tested on: MDA-MB-231 breast
CCRF-CEM leukemia = tested on: CCRF-CEM leukemia
RXF 393 renal = tested on: RXF 393 renal
M14 melanoma = tested on: M14 melanoma
NCI-H522 lung = tested on: NCI-H522 lung
BT-549 breast = tested on: BT-549 breast
HOP-62 NSCLC = tested on: HOP-62 NSCLC
OVCAR-4 ovarian = tested on: OVCAR-4 ovarian
RPMI-8226 leukemia = tested on: RPMI-8226 leukemia
SN12C renal = tested on: SN12C renal
MDA-MB-435 = tested on: MDA-MB-435
UO-31 renal = tested on: UO-31 renal
HS 578T breast = tested on: HS 578T breast
SK-MEL-28 melanoma = tested on: SK-MEL-28 melanoma
T-47D breast = tested on: T-47D breast
HT29 colon = tested on: HT29 colon
COLO 205 colon = tested on: COLO 205 colon
SK-MEL-2 melanoma = tested on: SK-MEL-2 melanoma
CAKI-1 renal = tested on: CAKI-1 renal
SNB-19 CNS = tested on: SNB-19 CNS
ACHN renal = tested on: ACHN renal
MOLT-4 leukemia = tested on: MOLT-4 leukemia
A498 renal = tested on: A498 renal
786-0 renal = tested on: 786-0 renal
UACC-257 melanoma = tested on: UACC-257 melanoma
A549 NSCLC = tested on: A549 NSCLC
NCI-H460 lung = tested on: NCI-H460 lung
SW-620 colon = tested on: SW-620 colon
DU-145 prostate = tested on: DU-145 prostate
SF-295 CNS = tested on: SF-295 CNS
OVCAR-5 ovarian = tested on: OVCAR-5 ovarian
PC-3 prostate = tested on: PC-3 prostate
MDA-N = tested on: MDA-N
HCT-15 colon = tested on: HCT-15 colon
LOX IMVI melanoma = tested on: LOX IMVI melanoma
SK-MEL-5 melanoma = tested on: SK-MEL-5 melanoma
HCT-116 colon = tested on: HCT-116 colon
MALME-3M melanoma = tested on: MALME-3M melanoma
OVCAR-8 ovarian = tested on: OVCAR-8 ovarian
MCF7 breast = tested on: MCF7 breast
SF-268 CNS = tested on: SF-268 CNS
U251 CNS = tested on: U251 CNS
SF-539 CNS = tested on: SF-539 CNS
HL-60(TB) leukemia = tested on: HL-60(TB) leukemia
TK-10 renal = tested on: TK-10 renal
SK-OV-3 ovarian = tested on: SK-OV-3 ovarian
NCI-H23 lung = tested on: NCI-H23 lung
NCI/ADR-RES ovarian = tested on: NCI/ADR-RES ovarian
OVCAR-3 ovarian = tested on: OVCAR-3 ovarian
SR leukemia = tested on: SR leukemia
K-562 leukemia = tested on: K-562 leukemia
KM12 colon = tested on: KM12 colon

In the case of `COc1cc2c3c(c1)c1cc(OC)c(OC)cc1c[n+]3CC2`, the TGI (IGROV1 ovarian) is reported as 50 µM and > 100 µM, the GI50 (NCI-H226 lung) is reported as 4.13 µM and the TGI (NCI-H226 lung) is reported as 50 µM and 77.3 µM. The GI50 (EKVX NSCLC) was > 100 µM, the TGI (EKVX NSCLC) was 50 µM and > 100 µM and the GI50 (UACC-62 melanoma) was 28.7 µM. For the same molecule, the TGI (UACC-62 melanoma) was 50 µM and > 100 µM, the GI50 (MDA-MB-231 breast) was > 100 µM and the TGI (MDA-MB-231 breast) was > 100 µM. The GI50 (CCRF-CEM leukemia) was 69.8 µM, the TGI (CCRF-CEM leukemia) was > 100 µM and the TGI (RXF 393 renal) was 50 µM and > 100 µM. The GI50 (M14 melanoma) was 63.8 µM, the TGI (M14 melanoma) was > 100 µM and the GI50 (NCI-H522 lung) was 1.93 µM. The TGI (NCI-H522 lung) was 14.8 µM and 37.1 µM, the GI50 (BT-549 breast) was 7.23 µM and the TGI (BT-549 breast) was 22.7 µM and 55.2 µM. The GI50 (HOP-62 NSCLC) was 3.24 µM, the TGI (HOP-62 NSCLC) was 50 µM and > 100 µM and the GI50 (OVCAR-4 ovarian) was 18.2 µM. For the same molecule, the TGI (OVCAR-4 ovarian) was 50 µM and > 100 µM, the TGI (RPMI-8226 leukemia) was 50 µM and the GI50 (SN12C renal) was 5.66 µM. The TGI (SN12C renal) was 15.6 µM and > 100 µM, the GI50 (MDA-MB-435) was 44.2 µM and the TGI (MDA-MB-435) was 50 µM and > 100 µM. For the same molecule, the TGI (UO-31 renal) was > 100 µM, the TGI (HS 578T breast) was 20.6 µM and the GI50 (SK-MEL-28 melanoma) was 32.8 µM. The TGI (SK-MEL-28 melanoma) was 50 µM and > 100 µM, the GI50 (T-47D breast) was 6.74 µM and the TGI (T-47D breast) was 34.2 µM and 72.4 µM. The GI50 (HT29 colon) was 37.2 µM, the TGI (HT29 colon) was 50 µM and > 100 µM and the GI50 (COLO 205 colon) was 14.8 µM. The TGI (COLO 205 colon) was 50 µM and > 100 µM, the GI50 (SK-MEL-2 melanoma) was 16.7 µM and the TGI (SK-MEL-2 melanoma) was 50 µM and 71.3 µM. For the same molecule, the GI50 (CAKI-1 renal) was > 100 µM, the TGI (CAKI-1 renal) was 50 µM and > 100 µM and the GI50 (SNB-19 CNS) was 1.94 µM. The TGI (SNB-19 CNS) was 50 µM and > 100 µM, the GI50 (ACHN renal) was > 100 µM and the TGI (ACHN renal) was > 100 µM. The GI50 (MOLT-4 leukemia) was 5.16 µM, the TGI (MOLT-4 leukemia) was 50 µM and > 100 µM and the GI50 (A498 renal) was > 100 µM. For the same molecule, the TGI (A498 renal) was > 100 µM, the GI50 (786-0 renal) was 56.2 µM and the TGI (786-0 renal) was 50 µM and > 100 µM. For the same molecule, the GI50 (UACC-257 melanoma) was 15.9 µM, the TGI (UACC-257 melanoma) was 50 µM and 64.7 µM and the GI50 (A549 NSCLC) was 76.7 µM. For the same molecule, the TGI (A549 NSCLC) was > 100 µM, the TGI (NCI-H460 lung) was 47.8 µM and the GI50 (SW-620 colon) was 26.6 µM. For the same molecule, the TGI (SW-620 colon) was > 100 µM, the GI50 (DU-145 prostate) was 40.3 µM and the TGI (DU-145 prostate) was 50 µM and > 100 µM. For the same molecule, the TGI (SF-295 CNS) was 50 µM and > 100 µM, the GI50 (OVCAR-5 ovarian) was > 100 µM and the TGI (OVCAR-5 ovarian) was > 100 µM. For the same molecule, the GI50 (PC-3 prostate) was 29.9 µM, the TGI (PC-3 prostate) was 50 µM and > 100 µM and the GI50 (MDA-N) was > 100 µM. The TGI (MDA-N) was 50 µM and > 100 µM, the GI50 (HCT-15 colon) was > 100 µM and the TGI (HCT-15 colon) was > 100 µM. The GI50 (LOX IMVI melanoma) was 35.5 µM, the TGI (LOX IMVI melanoma) was 50 µM and > 100 µM and the GI50 (SK-MEL-5 melanoma) was 11.8 µM. For the same molecule, the TGI (SK-MEL-5 melanoma) was 50 µM and 36.6 µM, the GI50 (HCT-116 colon) was 40.5 µM and the TGI (HCT-116 colon) was 50 µM and > 100 µM. For the same molecule, the GI50 (MALME-3M melanoma) was 2.71 µM, the TGI (MALME-3M melanoma) was 7.93 µM and 13 µM and the GI50 (OVCAR-8 ovarian) was 1.86 µM. For the same molecule, the TGI (OVCAR-8 ovarian) was 50 µM and 43.6 µM, the GI50 (MCF7 breast) was 21.3 µM and the TGI (MCF7 breast) was 50 µM and > 100 µM. The GI50 (SF-268 CNS) was 0.351 µM, the TGI (SF-268 CNS) was 3.3 µM and 3.8 µM and the GI50 (U251 CNS) was 1.28 µM. The TGI (U251 CNS) was 50 µM and 25.9 µM, the TGI (SF-539 CNS) was 50 µM and the GI50 (HL-60(TB) leukemia) was > 100 µM. For the same molecule, the TGI (HL-60(TB) leukemia) was > 100 µM, the GI50 (TK-10 renal) was > 100 µM and the TGI (TK-10 renal) was > 100 µM. The GI50 (SK-OV-3 ovarian) was 89.5 µM, the TGI (SK-OV-3 ovarian) was > 100 µM and the TGI (NCI-H23 lung) was 45.6 µM and > 100 µM. The GI50 (NCI/ADR-RES ovarian) was > 100 µM, the TGI (NCI/ADR-RES ovarian) was > 100 µM and the GI50 (OVCAR-3 ovarian) was 17.7 µM. The TGI (OVCAR-3 ovarian) was 50 µM and > 100 µM, the TGI (SR leukemia) was 50 µM and the GI50 (K-562 leukemia) was 40.5 µM. The TGI (K-562 leukemia) was 50 µM and > 100 µM, the GI50 (KM12 colon) was 5.69 µM and the TGI (KM12 colon) was 19.3 µM and 69.9 µM.
